The nature of series [1]: Qualitative solubility in water. Type of series: physicochemical. The procedure:
A solution of 254 mg (2 mmol) of 1-methyl-4-nitropyrazole in 15 mL of warm water was mixed with a solution of 415 mg (1 mmol) of K2PtCl4 in 5 mL of water. The reaction mixture was maintained in darkness at 25 °C and monitored periodically by TLC until the absence of free ligand (app. 3 weeks). Then, the yellow precipitate was filtered off and dried, giving 480 mg (92%) of the crude mixture, which mainly consisted of two individual Pt complexes (TLC). […] Combustion and spectral analyses for the cis complex 1: Elemental analysis for formula C8H10N6O4Cl2Pt of compound 1: Calculated/Found (%): C 18.47/18.80, H 1.94/1.89, N 16.16/15.97, Cl 13.63/13.70. ^1H NMR (300.15 MHz, acetone-d6): δ[ppm] […] Combustion and spectral analyses for the trans complex 2: Elemental analysis for formula C8H10N6O4Cl2Pt of the trans-complex 2: Calculated/Found (%): C 18.47/18.76, H 1.94/1.84, N 16.16/15.86, Cl 13.63/13.93. ^1H NMR (300.15 MHz, acetone-d6): δ[ppm] […] Analysis of Mass Spectrum (ESI-MS) of both complexes 1 and 2: The calculated value of the parent peak mass for the formula C8H10N6O4Cl2Pt was 518.9789 u.

Another series has as its system MCF-7 cells. Nature of the series: Total cellular platinum uptake (ICP OES). Type of series: cell-based, human. The note with it: MCF-7, 4 h exposure, 10 µM. The procedure:
It is necessary to strongly emphasize that the underlined values have a statistically significant lack of variance homogeneity (Fisher–Snedecor’s F-test, Fα/2) with respect to reference drug variance, so Aspin–Welch’s t-test was applied in these cases. […] For ionic compound 8, platinum uptake value was not determined due to Pt concentrations in the cell lysates being below the instrument detection limit (IDL = 10 μg/kg) specified by the manufacturer for the device used.
Cultured MCF-7 cells were seeded at a density of 4 × 10^5 cells/well of culture medium on a 6-well plate (Corning, NY, USA) to a final volume of 2.5 mL. […] The wells without MCF-7 cells were filled with 1 mL of culture medium-containing compound tested to act as a reference for nonspecific platinum complex adsorption on the surface of the well. After incubation, all wells were washed twice with 2 mL of cold PBS, filled with 400 μL of hot (ca 90 °C) 65% nitric acid, and maintained to stand for 2 h. All wells were finally filled with 1600 μL of water and this solution was collected and analyzed using iCAP 7400 Duo ICP OES instrument (Thermo Fisher Scientific) using the plasma axial view (10 s) at λ = 265.945 nm. The amount of Pt per cell was calculated by subtracting the amount of Pt found in the blank well from the amount of Pt found in the cell-containing wells and normalized to the average number of cells per well. The mean and SD values were calculated on the basis of 4 measurements.

The nature of series [2]: Isomerization of complexes in solution. The format is physicochemical. The settings on record: chloroform, acetone, DMSO, DMF. The text has this:
Additionally, it is worth adding that complexation with 1-methyl-3-nitropyrazole, was unsuccessful, probably because of the steric hindrance of both methyl and nitro groups that constrain access to free pair of electrons of pyrazole nitrogen. Besides, the electrostatic repelling of the approaching tetrachloroplatinate anion by electron dense oxygen atoms of the nitro group may also be an important factor that can hinder and/or prevent the formation of a complex. […] The reason is that both symmetric and antisymmetric valence vibrations of cis Pt(II)complexes are active, contrary to trans isomers in which case only antisymmetric vibration is active.
A solution of 254 mg (2 mmol) of 1-methyl-5-nitropyrazole in 3 mL of acetone was mixed with a solution of 415 mg (1 mmol) of K2PtCl4 in 5 mL of water and maintained in darkness at 25 °C until the reaction completion (TLC, app. 3 days). […] Combustion and spectral analyses for the cis complex 3: Elemental analysis for formula C8H10N6O4Cl2Pt of compound 3: Calculated/Found (%): C 18.47/17.97, H 1.94/1.66, N 16.16/16.50, Cl 13.63/13.87. ^1H NMR (300.15 MHz, acetone-d6): δ[ppm] […] Combustion and spectral analyses for the trans complex 4: Elemental analysis for formula C8H10N6O4Cl2Pt of trans-complex 4: Calculated/Found (%): C 18.47/18.14, H 1.94/1.65, N 16.16/15.89, Cl 13.63/13.82. ^1H NMR (300.15 MHz, acetone-d6): δ[ppm] […]

In the case of `Cn1cc([N+](=O)[O-])c[n+]1[Pt@SP2-2]([Cl])([Cl])[n+]1cc([N+](=O)[O-])cn1C` [Compound 1, cis-dichloridobis(1-methyl-4-nitropyrazole)platinum(II)], the solubility in water result in series [1] is on record as “poorly in water”. For the same molecule, the “Total Cellular Platinum Uptake in MCF-7 Cells (± SD)” value in the series on MCF-7 cells is reported as 27 ± 6 ng Pt/10^6 Cells.

Turning to `Cn1cc([N+](=O)[O-])c[n+]1[Pt@SP3-2]([Cl])([Cl])[n+]1cc([N+](=O)[O-])cn1C` [Compound 2, trans-dichloridobis(1-methyl-4-nitropyrazole)platinum(II)], the solubility in water entry in series [1] is “very poorly in water”. The “Total Cellular Platinum Uptake in MCF-7 Cells (± SD)” value with MCF-7 cells worked out at 32 ± 6 ng Pt/10^6 Cells.

For `Cn1c([N+](=O)[O-])cc[n+]1[Pt@SP2-2]([Cl])([Cl])[n+]1ccc([N+](=O)[O-])n1C` [Compound 3, cis-dichloridobis(1-methyl-5-nitropyrazole)platinum(II)], the “Total Cellular Platinum Uptake in MCF-7 Cells (± SD)” value in the series with MCF-7 cells stood at 82 ± 11 ng Pt/10^6 Cells. For the same molecule, the isomerization in solution entry in series [2] is listed as “occurred slowly in chloroform or acetone solutions but much faster in more polar aprotic solvents (DMSO, DMF)”.

Consider `Cn1c([N+](=O)[O-])cc[n+]1[Pt@SP3-2]([Cl])([Cl])[n+]1ccc([N+](=O)[O-])n1C` [Compound 4, trans-dichloridobis(1-methyl-5-nitropyrazole)platinum(II)], for which the “Total Cellular Platinum Uptake in MCF-7 Cells (± SD)” value in the series with MCF-7 cells came out at 83 ± 12 ng Pt/10^6 Cells. For the same molecule, in series [2], the isomerization in solution result is listed as “occurred slowly in chloroform or acetone solutions but much faster in more polar aprotic solvents (DMSO, DMF)”.

The values are drawn from article PMC7768359, “Synthesis of Platinum(II) Complexes with Some 1-Methylnitropyrazoles and In Vitro Research on Their Cytotoxic Activity” (Pharmaceuticals, 2020).
